Where two headings read alike, the source gives them in different places.

Drawing on patent publication US5215971A, “Antiviral pharmaceutical composition comprising 5-substituted pyrimidine nucleosides” (priority 1986, dated 1993), this text covers IC50, absorption and Elimination half-lives for nine compounds.

The subject of data set [1] is HIV (HTLV-IIIB) in H9 cells. Kind of data set: Inhibition of human immunodeficiency virus multiplication in cell culture (HIV infection of H9 cells). Format: cell-based. Conditions: Human immunodeficiency virus 1, 6-7 days, HIV antigen containing cells by immunofluorescence, read-out: Concentration for 50% inhibition (IC50) of human immunodeficiency virus multiplication in cell culture. The procedure:
H9 cells, 10^5 cells per well on a 24 well plate, suspended in 2 ml RPMI-medium containing 10% fetal calf serum, 100 μg/ml penicillin, 10 μg/ml streptomycin sulfate and 2 μg/ml polybrene are exposed to HIV (HTLV-IIIB) and different concentrations of the inhibiting compounds. The plates are incubated at 37° C. in 5% CO2 for 6-7 days. The contents in each well is then homogenized with a pipette and transferred to a centrifuge tube. After centrifugation for 10 min at 1500 rpm the supernatent is removed and the cell pellet is analyzed by fixing in methanol on glass plates. Human HIV positive serum diluted 1:80 or 1:160 is added and incubated for 30 min at 37°. The plate is then washed with phosphate-buffered saline (PBS) containing Ca^2+ and Mg^2+. Sheep antihuman conjugate (FITC) is added and after a new incubation the plate is again washed with PBS. Contrast staining is done with Evans blue and after drying the frequency of HIV antigen containing cells is determined in a microscope.

For data set [2], the target named is Duck hepatitis virus polymerase (Duck hepatitis B virus, UniProt P03162). Kind of data set: Inhibition of duck hepatitis B virus polymerase (reverse transcriptase) using DNA and RNA templates. Format: biochemical. Particulars: compounds used as 5'-triphosphates. From the text:
(§1) There is no cell culture assay which can be used to determine the efficiacy of compounds against hepatitis B virus. However, the hepatitis B virus encodes a reverse transcriptase, Summer and Mason, Cell 29 (1982) 403-415, obligatory for hepatitis b virus replication. This enzyme, which is also a consituent of the hepatitis B virus particles, can be used to evaluate the inhibitory activity against hepatitis B virus of nucleoside analogues provided that these compounds are used as their metabolic products, 5'-triphosphates. […] The hepatitis B virus reverse transcriptase can, as all reverse transcriptases, use both RNA and DNA templates, and included in Table 2 is also the inhibition of duck hepatitis B virus polymerase using both DNA and RNA templates.
(§2) The assays were performed as described in Tao et al. Hepatitis B virus was for a long time considered to be a DNA virus with a viral DNA polymerase being part of the virus particles. However, it was discovered that the hepatitis B virus DNA polymerase activity was due to a reverse transcriptase and that this virus should be regarded as a retrovirus which, in contrast to other retroviruses, uses its DNA phase as genetic material in the virus particles. Summers and Mason. Hepatitis B viruses are therefore not related to DNA viruses such as herpes-viruses or adeno-virus, but rather are related to retroviruses such as HIV.

Data set [3] deals with Hepatitis B virus polymerase (Hepatitis B virus genotype D subtype ayw, UniProt P03156). Kind of data set: Inhibition of hepatitis B virus polymerase (reverse transcriptase) using a DNA template. Particulars: compounds used as 5'-triphosphates. Format: biochemical.
Chain of Hepatitis B virus polymerase (P03156 whole entry): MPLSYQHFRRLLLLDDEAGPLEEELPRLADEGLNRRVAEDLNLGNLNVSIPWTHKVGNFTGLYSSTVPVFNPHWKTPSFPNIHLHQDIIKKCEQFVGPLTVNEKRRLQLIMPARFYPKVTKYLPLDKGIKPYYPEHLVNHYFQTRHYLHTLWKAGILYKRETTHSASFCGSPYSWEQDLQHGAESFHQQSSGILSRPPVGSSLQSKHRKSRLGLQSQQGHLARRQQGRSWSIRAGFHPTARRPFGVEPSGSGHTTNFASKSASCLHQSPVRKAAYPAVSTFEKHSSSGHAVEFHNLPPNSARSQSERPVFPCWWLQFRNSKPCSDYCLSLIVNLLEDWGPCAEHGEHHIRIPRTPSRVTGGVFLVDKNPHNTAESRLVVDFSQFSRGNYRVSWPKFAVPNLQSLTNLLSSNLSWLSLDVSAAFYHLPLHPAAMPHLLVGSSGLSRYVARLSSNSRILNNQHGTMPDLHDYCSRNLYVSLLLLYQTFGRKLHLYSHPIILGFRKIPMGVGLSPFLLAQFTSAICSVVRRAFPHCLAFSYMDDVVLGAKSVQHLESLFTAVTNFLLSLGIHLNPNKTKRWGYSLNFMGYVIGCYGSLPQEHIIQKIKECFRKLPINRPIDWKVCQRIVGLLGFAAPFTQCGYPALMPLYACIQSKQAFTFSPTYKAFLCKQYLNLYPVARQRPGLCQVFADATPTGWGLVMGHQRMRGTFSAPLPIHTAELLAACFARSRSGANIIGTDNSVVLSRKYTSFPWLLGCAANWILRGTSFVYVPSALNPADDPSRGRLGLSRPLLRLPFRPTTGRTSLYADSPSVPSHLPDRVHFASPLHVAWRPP
Excerpt: as §1, §2

For data set [4] the following is noted: monkeys, Tao et al., cited from earlier work; for absorption: oral; for Elimination half-lives: range given for both compounds together.
The mark [5] stands for this setting: DNA template, read-out: IC50, duck hepatitis virus polymerase, DNA template.
Setting [6] is: RNA template, read-out: IC50, duck hepatitis virus polymerase, RNA template.

Chain of Duck hepatitis virus polymerase (P03162 whole entry): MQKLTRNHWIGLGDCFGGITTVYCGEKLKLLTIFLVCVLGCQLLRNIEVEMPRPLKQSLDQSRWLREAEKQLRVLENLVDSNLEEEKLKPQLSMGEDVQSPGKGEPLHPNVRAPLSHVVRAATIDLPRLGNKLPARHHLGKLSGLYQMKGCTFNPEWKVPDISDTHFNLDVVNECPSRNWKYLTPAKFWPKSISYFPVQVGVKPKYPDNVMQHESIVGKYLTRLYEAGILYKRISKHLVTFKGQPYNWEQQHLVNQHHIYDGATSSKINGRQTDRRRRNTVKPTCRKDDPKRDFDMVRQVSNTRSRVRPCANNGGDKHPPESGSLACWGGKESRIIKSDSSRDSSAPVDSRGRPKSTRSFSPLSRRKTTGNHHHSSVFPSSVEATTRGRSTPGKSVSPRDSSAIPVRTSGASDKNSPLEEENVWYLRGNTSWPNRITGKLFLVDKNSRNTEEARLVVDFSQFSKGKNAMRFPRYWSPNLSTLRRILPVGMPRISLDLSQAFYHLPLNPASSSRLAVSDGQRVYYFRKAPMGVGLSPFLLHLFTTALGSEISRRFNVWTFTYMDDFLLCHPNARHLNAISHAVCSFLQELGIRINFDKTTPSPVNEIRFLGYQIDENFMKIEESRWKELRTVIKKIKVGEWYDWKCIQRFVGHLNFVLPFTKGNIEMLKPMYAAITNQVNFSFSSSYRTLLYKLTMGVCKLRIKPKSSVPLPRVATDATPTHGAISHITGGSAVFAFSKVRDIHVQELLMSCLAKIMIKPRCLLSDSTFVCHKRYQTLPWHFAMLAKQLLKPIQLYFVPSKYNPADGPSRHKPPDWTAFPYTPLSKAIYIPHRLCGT

As to `CC=Cc1cn([C@H]2C[C@H](O)[C@@H](CO)O2)c(=O)[nH]c1=O` [5-(1-propenyl)-2'-deoxyuridine], the IC50 in data set [1] was under 1000 nM; in data set [2] (setting [5]), 110 nM; in data set [2] (setting [6]), 150 nM; in data set [3] it was 100 nM. Moreover, the absorption entry in data set [4] is reported as “moderately well absorbed”. Besides, in data set [4], the Elimination half-lives is 1.2 to 1.8 h.
Turning to `CCc1cn([C@@H]2O[C@H](CO)[C@@H](O)[C@@H]2O)c(=O)[nH]c1=O` [1-(β-D-arabinofuranosyl)-5-ethyluracil], the IC50 in data set [1] turned out to be 2000 nM.
`O=c1[nH]c(=O)n([C@H]2C[C@H](O)[C@@H](CO)O2)cc1CO` [5-hydroxymethyl-2'-deoxyuridine]: the IC50 in data set [1] was under 1000 nM; in data set [2] (setting [5]) it was 500 nM; in data set [2] (setting [6]), 240 nM; in data set [3], 250 nM.
Take `CCc1cn([C@H]2C[C@H](O)[C@@H](CO)O2)c(=O)[nH]c1=O` [5-ethyl-2'-deoxyuridine]: the IC50 in data set [1] was determined as 1000 nM.
On the same count and under the same terms, under `C=C(C)c1cn([C@@H]2O[C@H](CO)[C@@H](O)[C@@H]2O)c(=O)[nH]c1=O` [1-(β-D-arabinofuranosyl)-5-isopropenyluracil] stands 2000 nM.
Turning to `O=c1[nH]c(=O)n([C@H]2C[C@H](O)[C@@H](CO)O2)cc1C1CC1` [5-cyclopropyl-2'-deoxyuridine], the IC50 in data set [1] was under 1000 nM.
As for `CCc1cn([C@H]2C[C@H](O)[C@@H](CO)O2)c(=O)[nH]c1=O` [5-Ethyl-2'-deoxythymidine], the IC50 in data set [2] (setting [5]) is 900 nM; in data set [2] (setting [6]), 740 nM; in data set [3], 250 nM.
As to `C=C(C)c1cn([C@H]2C[C@H](O)[C@@H](CO)O2)c(=O)[nH]c1=O` [5-(1-isopropenyl)-2'-deoxyuridine], the IC50 in data set [1] is 1000 to 10000 nM.
`CC=Cc1cn([C@@H]2O[C@H](CO)[C@@H](O)[C@@H]2O)c(=O)[nH]c1=O` [1-(β-D-arabinofuranosyl)-5-(1-propenyl)-uracil]: the IC50 in data set [1] is under 1000 nM; in data set [2] (setting [5]) it was 340 nM; in data set [2] (setting [6]), 540 nM; in data set [3], 240 nM. Besides, the absorption result in data set [4] was “moderately well absorbed”. In data set [4], the Elimination half-lives is 1.2 to 1.8 h.
